Source: patent US8933113B2 (Merck Sharp & Dohme Corp., priority 2011, dated 2015)

Each compound was assayed against T1, full-length human Mineralocorticoid Receptor (MR) (Homo sapiens, UniProt P08235) (assay: human MR NH Pro assay (PathHunter Protein:Protein interaction assay), MR antagonist activity). Details: PathHunter CHO-K1 cells overexpressing human MR; aldosterone about 0.3 nM; 6 hours at 37° C.; luminescence; read-out: Primary Assay IP rating (IP = inflection point for a given dose-response titration curve).
T1 construct: host or cells: PathHunter CHO-K1 cells
T1 sequence (P08235 1-984): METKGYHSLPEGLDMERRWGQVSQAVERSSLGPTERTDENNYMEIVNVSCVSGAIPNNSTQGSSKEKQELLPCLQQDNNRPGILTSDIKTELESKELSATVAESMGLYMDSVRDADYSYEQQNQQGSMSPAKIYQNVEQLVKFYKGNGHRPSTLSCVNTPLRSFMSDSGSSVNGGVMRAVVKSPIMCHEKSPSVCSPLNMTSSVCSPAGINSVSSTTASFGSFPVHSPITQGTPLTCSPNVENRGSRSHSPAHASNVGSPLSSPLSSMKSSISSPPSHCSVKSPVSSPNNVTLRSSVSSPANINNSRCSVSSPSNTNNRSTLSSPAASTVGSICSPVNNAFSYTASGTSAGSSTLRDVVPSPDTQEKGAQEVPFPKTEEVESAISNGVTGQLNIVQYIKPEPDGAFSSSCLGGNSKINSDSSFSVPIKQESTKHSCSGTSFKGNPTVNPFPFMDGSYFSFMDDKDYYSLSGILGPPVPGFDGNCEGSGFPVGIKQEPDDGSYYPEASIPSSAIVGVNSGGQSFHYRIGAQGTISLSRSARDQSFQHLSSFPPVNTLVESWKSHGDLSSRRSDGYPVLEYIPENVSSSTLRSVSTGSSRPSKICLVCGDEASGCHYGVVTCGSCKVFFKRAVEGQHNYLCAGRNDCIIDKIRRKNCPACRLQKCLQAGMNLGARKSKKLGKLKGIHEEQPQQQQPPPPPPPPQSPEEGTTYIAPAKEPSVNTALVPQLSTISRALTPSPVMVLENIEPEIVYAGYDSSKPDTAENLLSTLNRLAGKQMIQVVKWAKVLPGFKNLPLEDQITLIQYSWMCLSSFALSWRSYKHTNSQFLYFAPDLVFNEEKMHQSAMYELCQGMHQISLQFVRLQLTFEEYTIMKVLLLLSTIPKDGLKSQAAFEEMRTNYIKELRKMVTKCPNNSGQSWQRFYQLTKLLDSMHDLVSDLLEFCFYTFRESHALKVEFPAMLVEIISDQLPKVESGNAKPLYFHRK
Type: cell-based
Text: The activity of the compounds of the present invention regarding mineralocorticoid receptor antagonism can be evaluated using the following assay.
Assessment of MR Potency in HMR NH Pro Assay
The human MR NH Pro assay is a commercially available PathHunter™ Protein:Protein interaction assay (DiscoveRx; http://www.discoverx.com/nhrs/prod-nhrs.php) that measures the ability of compounds to antagonize full-length human Mineralocorticoid Receptor (MR) binding to a coactivator peptide.
6. Test compounds are titrated starting at 4.4 mM, 10-point titration in 1:3 dilution.
3. Add 5 μL 6× agonist (final aldosterone concentration should be about 0.3 nM to about 1.0 nM) to all wells (using the PlateMate Plus.)
• (ThermoFisher) (except those wells in columns 23 and 24) 4. Add 5 uL of assay media to all wells in column 23 and 24. 5. Incubate 6 hrs at 37° C., 5% CO2. 6. Add 15 uL 3× DiscoveRx detection reagent to each well. 7. Incubate 1 hour at room temperature (keep plates stored in the dark). 8. Read plates on Envision (PerkinElmer) luminesence plate reader and analyze using ADA.
Compound `CCC(/C=C/C#N)(c1ccc(Cl)cc1)n1ncc2c(N)cccc21` (stereo not drawn) [Compound 133, (E)-4-(4-amino-1H-indazol-1-yl)-4-(4-chlorophenyl)hex-2-enenitrile] has an IC50 of 100 to 500 nM.
`CCC(CN)(c1ccc(Cl)cc1)n1ccc2c(NS(C)(=O)=O)cccc21` (stereo not drawn) [Compound 177, N-(1-(1-amino-2-(4-chlorophenyl)butan-2-yl)-1H-indol-4-yl)methanesulfonamide] gave an IC50 of 100 to 500 nM.
Compound `CCC(C(=O)NCCOC)(c1ccc(Cl)cc1)n1ccc2c(NS(C)(=O)=O)cccc21` (stereo not drawn) [Compound 42, 2-(4-chlorophenyl)-N-(2-methoxyethyl)-2-{4-[(methylsulfonyl)amino]-1H-indol-1-yl}butanamide] has an IC50 of 500 to 5000 nM.
Compound `CCC(C(C)=O)(c1ccc(C(F)(F)F)cc1)n1ccc2c(NS(C)(=O)=O)cccc21` (single isomer, unassigned) [Compound 103, N-(1-(2-oxo-3-(4-(trifluoromethyl)phenyl)pentan-3-yl)-1H-indol-4-yl)methanesulfonamide] has an IC50 of 100 to 500 nM.
With `CC[C@@](c1ccc(Cl)cc1)(c1noc(-c2ccc(OC)cc2)n1)n1ccc2c(NS(C)(=O)=O)cccc21` [Compound 61, (R)—N-(1-{1-(4-chlorophenyl)-1-[5-(4-methoxyphenyl)-1,2,4-oxadiazol-3-yl]propyl}-1H-indol-4-yl)methanesulfonamide] the IC50 was < 100 nM.
In the case of `CCC(C(=O)NCC#N)(c1ccc(Cl)cc1)n1ccc2c(NS(C)(=O)=O)cccc21` (stereo not drawn) [Compound 51, 2-(4-chlorophenyl)-N-(cyanomethyl)-2-{4-[(methylsulfonyl)amino]-1H-indol-1-yl}butanamide], the IC50 is reported as < 100 nM.
For `COC(=O)C(c1ccc(Cl)cc1)n1ccc2c([N+](=O)[O-])cccc21` (stereo not drawn) [Compound 1, methyl (4-chlorophenyl)(4-nitro-1H-indol-1-yl)acetate], the IC50 was 500 to 5000 nM.
In the case of `CCC(CCC#N)(c1ccc(Cl)cc1)n1ncc2c(NS(C)(=O)=O)cccc21` (single isomer, unassigned) [Compound 138, N-(1-(3-(4-chlorophenyl)-1-cyanopentan-3-yl)-1H-indazol-4-yl)methanesulfonamide], the IC50 is reported as < 100 nM.
In the case of `CCn1nnc(C(CC)(c2ccc(Cl)cc2)n2ccc3c(NS(C)(=O)=O)cccc32)n1` (single isomer, unassigned) [Compound 179, N-(1-(1-(4-chlorophenyl)-1-(2-ethyl-2H-tetrazol-5-yl)propyl)-1H-indol-4-yl)methane sulfonamide], the IC50 is reported as < 100 nM.
With `CCC(/C=C/C#N)(c1ccc(Cl)cc1)n1ncc2c(NS(C)(=O)=O)cc(F)cc21` (stereo not drawn) [Compound 130, (E)-N-(1-(3-(4-chlorophenyl)-1-cyanopent-1-en-3-yl)-6-fluoro-1H-indazol-4-yl)methanesulfonamide] the IC50 was < 100 nM.
With `CCC(/C=C/C#N)(c1ccc(Cl)cc1)n1ccc2c(NS(C)(=O)=O)cccc21` (stereo not drawn) [Compound 127, (E)-N-(1-(3-(4-chlorophenyl)-1-cyanopent-1-en-3-yl)-1H-indol-4-yl)methanesulfonamide] the IC50 was < 100 nM.
`CCC(CO)(c1ccc(C(F)(F)F)cc1)n1ncc2c(NS(C)(=O)=O)cccc21` (stereo not drawn) [Compound 89, N-(1-(1-hydroxy-2-(4-(trifluoromethyl)phenyl)butan-2-yl)-1H-indazol-4-yl)methanesulfonamide] showed an IC50 of 100 to 500 nM.
`CCC(c1ccc(Cl)cc1)(c1nnc(-c2ccc(F)cc2)o1)n1ccc2c(NS(C)(=O)=O)cccc21` (stereo not drawn) [Compound 72, N-(1-{1-(4-chlorophenyl)-1-[5-(4-fluorophenyl)-1,3,4-oxadiazol-2-yl]propyl}-1H-indol-4-yl)methanesulfonamide] gave an IC50 of 100 to 500 nM.
With `CCC(c1ccc(Cl)cc1)(C(C)O)n1ncc2c(NS(C)(=O)=O)cccc21` (single isomer, unassigned) [Compound 107] the IC50 was < 100 nM.
With `CCC(c1ccc(Cl)cc1)(n1ccc2c(NS(C)(=O)=O)cccc21)C1(O)CC1` (stereo not drawn) [Compound 154, N-(1-(1-(4-chlorophenyl)-1-(1-hydroxycyclopropyl)propyl)-1H-indol-4-yl)methanesulfonamide] the IC50 was < 100 nM.
